A short description of series [1]: Particle size distribution by laser light scattering (Malvern). The class given is physicochemical. To be noted: zaleplon used in Example 15 capsules; method not stated.
The conditions of series [2]: cited from earlier work.

Where only a bound is given, the exact number is not on record here.

On to `CCN(C(C)=O)c1cccc(-c2ccnc3c(C#N)cnn23)c1` [Zaleplon, N-[3-(3-cyanopyrazolo[1,5-α]pyrimidin-7-yl)phenyl]-N-ethylacetamide], for which the D90 in series [1] worked out at 195 μm.

For the molecule `Cc1ccc(-c2nc3ccc(C)cn3c2CC(=O)N(C)C)cc1` [Zolpidem, N,N, 6-trimethyl-2-p-tolyl-imidazo[1,2-a]pyridine-3-acetamide], the elimination half-life in series [2] (in vivo) is 2 to 3 h. In addition, the onset of action in series [2] (usually) was no more than 15 min.

The values are drawn from patent US20070098788A1, “NON-BENZ[…] COMPOSITIONS” (priority 2005, published 2007).
